From ChEMBL document CHEMBL1139353, “Discovery of a new class of potential multifunctional atypical antipsychotic agents targeting dopamine D3 and serotonin 5-HT1A and 5-HT2A receptors: design, synthesis, and effects on behavior” (J Med Chem, 2009)
Activity calls are given as the source filed them. The rule behind the calls is not given here.

How the values were obtained:
[1] = target: D(1A) dopamine receptor (Rattus norvegicus, UniProt P18901)
Description: Displacement of [3H]SCH23390 from dopamine D1 receptor in CRL:CD(SD)BR-COBS rat striatum by scintillation spectrometry

[2] = system: Mus musculus; experiment: Antipsychotic activity in NMRI mouse assessed as reduction in methamphetamine-induced locomotor activity at 10 mg/kg administered 30 mins prior to testing measured for 60 mins relative to control; format: functional, organism-based; design: dose 10 mg/kg
[3] = target: T1, 5-hydroxytryptamine receptor 1A (Rattus norvegicus, UniProt P19327); experiment: biochemical
T1 sequence (P19327 whole entry): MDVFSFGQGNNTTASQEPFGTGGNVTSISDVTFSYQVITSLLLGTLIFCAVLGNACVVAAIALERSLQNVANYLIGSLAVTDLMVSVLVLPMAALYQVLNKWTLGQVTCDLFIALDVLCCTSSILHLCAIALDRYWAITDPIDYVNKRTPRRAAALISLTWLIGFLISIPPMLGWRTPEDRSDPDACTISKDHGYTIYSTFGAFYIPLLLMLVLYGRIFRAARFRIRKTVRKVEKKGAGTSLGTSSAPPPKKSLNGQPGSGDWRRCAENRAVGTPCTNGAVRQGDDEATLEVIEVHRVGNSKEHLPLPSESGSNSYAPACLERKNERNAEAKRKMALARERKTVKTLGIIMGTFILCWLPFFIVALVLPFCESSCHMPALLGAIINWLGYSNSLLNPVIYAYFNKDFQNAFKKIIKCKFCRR
Description: Displacement of [3H]8OH-DPAT from 5HT1A receptor in CRL:CD(SD)BR-COBS rat hippocampus by scintillation spectrometry

[4] = target: Histamine H1 receptor (Cavia porcellus, UniProt P31389); experiment: Displacement of [3H]pyrilamine from histamine H1 receptor in guinea pig cerebellum; format: tissue-based
[5] = system: Rattus norvegicus; experiment: Induction of c-Fos protein expression in rat nucleus accumbens core subregion at 10 mg/kg, ip after 1 hr by light microscopy; format: functional, organism-based; design: dose 10 mg/kg
[6] = Displacement of [3H]idazoxan from imidazole I2 receptor in rabbit kidney by filtration technique; design: species or system Oryctolagus cuniculus
[7] = target: D(3) dopamine receptor (Homo sapiens, UniProt P35462); experiment: Antagonist activity at human dopamine D3 receptor expressed in CHO-K1 cells by [35S]GTPgammaS binding assay; format: functional, cell-based
[8] = system: Mus musculus; conditions: NMRI
Description: (§1) Antipsychotic activity in NMRI mouse assessed as reduction in methamphetamine-induced locomotor activity administered 30 mins prior to testing measured for 60 mins

[9] = system: Mus musculus; experiment: Antipsychotic activity in NMRI mouse assessed as reduction in phencyclidine-induced locomotor activity at 10 mg/kg administered 30 mins prior to testing measured for 60 mins; format: functional, organism-based; design: dose 10 mg/kg
[10] = species on record: Mus musculus; conditions: in vivo, sc, 1 h
Description: Toxicity in sc dosed NMRI mouse assessed as cataleptogenic potential administered 30 mins prior to testing measured every 15 mins for 60 mins by horizontal bar test

[11] = species on record: Mus musculus; experiment: animal or person; conditions: NMRI
Description: as §1

[12] = system: Rattus norvegicus; experiment: Induction of c-Fos protein expression in rat nucleus accumbens core subregion at 3 mg/kg, ip after 1 hr by light microscopy; format: functional, organism-based; design: dose 3 mg/kg
[13] = target: Voltage-gated inwardly rectifying potassium channel KCNH2 (Homo sapiens, UniProt Q12809)
Description: Binding affinity to human ERG expressed in HEK293 cells by whole cell patch clamp method

[14] = target: T2, Adrenergic receptor alpha-2 (Rattus norvegicus, UniProt P22086+P19328+P22909); experiment: Displacement of [3H]clonidine from adrenergic alpha2 receptor in rat cerebral cortex by filtration technique; format: tissue-based
T2 sequence (P22086 whole entry): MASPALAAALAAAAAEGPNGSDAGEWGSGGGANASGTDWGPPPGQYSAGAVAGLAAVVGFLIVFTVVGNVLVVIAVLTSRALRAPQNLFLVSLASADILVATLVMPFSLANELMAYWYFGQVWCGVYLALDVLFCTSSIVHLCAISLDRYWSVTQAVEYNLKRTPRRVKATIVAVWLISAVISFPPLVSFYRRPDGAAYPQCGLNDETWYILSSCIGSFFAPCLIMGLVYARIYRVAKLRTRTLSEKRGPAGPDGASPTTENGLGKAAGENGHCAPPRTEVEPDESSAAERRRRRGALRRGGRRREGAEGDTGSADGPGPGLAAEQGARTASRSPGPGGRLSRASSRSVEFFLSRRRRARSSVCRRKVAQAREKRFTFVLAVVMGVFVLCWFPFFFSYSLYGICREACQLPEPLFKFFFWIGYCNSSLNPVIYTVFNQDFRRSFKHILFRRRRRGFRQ
T2 sequence (P19328 whole entry): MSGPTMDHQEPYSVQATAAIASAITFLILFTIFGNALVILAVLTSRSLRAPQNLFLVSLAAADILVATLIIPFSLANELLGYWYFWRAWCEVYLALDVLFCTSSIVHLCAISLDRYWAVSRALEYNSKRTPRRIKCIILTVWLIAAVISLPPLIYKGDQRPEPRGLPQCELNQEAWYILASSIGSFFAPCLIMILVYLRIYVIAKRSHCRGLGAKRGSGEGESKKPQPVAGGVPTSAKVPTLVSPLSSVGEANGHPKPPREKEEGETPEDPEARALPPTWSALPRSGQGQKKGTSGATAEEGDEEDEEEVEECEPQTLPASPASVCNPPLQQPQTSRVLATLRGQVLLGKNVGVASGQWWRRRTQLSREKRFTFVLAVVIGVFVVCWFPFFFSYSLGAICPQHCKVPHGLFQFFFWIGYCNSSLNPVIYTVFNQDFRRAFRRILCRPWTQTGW
T2 sequence (P22909 whole entry): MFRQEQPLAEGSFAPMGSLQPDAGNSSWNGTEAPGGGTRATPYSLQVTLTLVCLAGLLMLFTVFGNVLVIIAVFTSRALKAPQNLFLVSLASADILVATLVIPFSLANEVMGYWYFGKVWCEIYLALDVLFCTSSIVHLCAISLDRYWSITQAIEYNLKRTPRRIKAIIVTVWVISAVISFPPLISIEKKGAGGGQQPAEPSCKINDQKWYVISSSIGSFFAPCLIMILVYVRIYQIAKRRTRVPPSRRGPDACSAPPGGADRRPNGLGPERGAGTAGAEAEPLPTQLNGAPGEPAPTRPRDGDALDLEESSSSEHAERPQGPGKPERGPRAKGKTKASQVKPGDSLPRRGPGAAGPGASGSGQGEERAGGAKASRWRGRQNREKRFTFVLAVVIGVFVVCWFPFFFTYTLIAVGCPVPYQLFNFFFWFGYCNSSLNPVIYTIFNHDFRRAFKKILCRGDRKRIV

[15] = species on record: Mus musculus; experiment: animal or person; conditions: NMRI; remark: listed apart in the source
Description: Antipsychotic activity in NMRI mouse assessed as reduction in phencyclidine-induced locomotor activity administered 30 mins prior to testing measured for 60 mins

[16] = system: Mus musculus; experiment: Antipsychotic activity in NMRI mouse assessed as reduction in phencyclidine-induced locomotor activity at 3 mg/kg administered 30 mins prior to testing measured for 60 mins; format: functional, organism-based; design: dose 3 mg/kg
[17] = target: 5-hydroxytryptamine receptor 2A (Rattus norvegicus, UniProt P14842); experiment: Intrinsic activity at 5HT2A receptor in Wistar rat aorta; format: tissue-based
[18] = system: Rattus norvegicus; experiment: Induction of c-Fos protein expression in rat dorsolateral striatum at 30 mg/kg, ip after 1 hr by light microscopy; format: functional, organism-based; design: dose 30 mg/kg
[19] = system: Rattus norvegicus; experiment: Induction of c-Fos protein expression in rat nucleus accumbens shell at 3 mg/kg, ip after 1 hr by light microscopy; format: functional, organism-based; design: dose 3 mg/kg

Chain of D(1A) dopamine receptor (P18901 whole entry): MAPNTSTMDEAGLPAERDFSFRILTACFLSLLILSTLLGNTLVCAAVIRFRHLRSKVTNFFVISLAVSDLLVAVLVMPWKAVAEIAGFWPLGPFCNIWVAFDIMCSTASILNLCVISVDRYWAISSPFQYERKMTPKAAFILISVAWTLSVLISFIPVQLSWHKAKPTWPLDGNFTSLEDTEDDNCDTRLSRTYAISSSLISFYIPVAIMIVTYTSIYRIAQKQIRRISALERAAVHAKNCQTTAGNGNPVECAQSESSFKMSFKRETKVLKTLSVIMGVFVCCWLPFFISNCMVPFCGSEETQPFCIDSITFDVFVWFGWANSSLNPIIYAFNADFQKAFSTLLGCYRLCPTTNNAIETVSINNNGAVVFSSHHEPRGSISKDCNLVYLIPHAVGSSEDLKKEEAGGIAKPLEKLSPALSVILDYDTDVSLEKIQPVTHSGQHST
Chain of Histamine H1 receptor (P31389 whole entry): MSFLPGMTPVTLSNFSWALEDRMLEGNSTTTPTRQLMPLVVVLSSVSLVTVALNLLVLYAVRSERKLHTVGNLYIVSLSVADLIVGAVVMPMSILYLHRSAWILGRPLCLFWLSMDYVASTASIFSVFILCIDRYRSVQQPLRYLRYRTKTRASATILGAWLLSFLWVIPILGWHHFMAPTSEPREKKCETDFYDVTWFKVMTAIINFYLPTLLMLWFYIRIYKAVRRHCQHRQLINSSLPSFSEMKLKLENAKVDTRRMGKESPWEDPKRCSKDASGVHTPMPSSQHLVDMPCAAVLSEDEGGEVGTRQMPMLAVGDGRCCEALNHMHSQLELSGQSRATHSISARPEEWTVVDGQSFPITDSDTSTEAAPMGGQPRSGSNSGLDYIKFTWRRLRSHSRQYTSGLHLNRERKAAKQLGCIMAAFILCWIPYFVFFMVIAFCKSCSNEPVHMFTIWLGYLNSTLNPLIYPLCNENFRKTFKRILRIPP
Chain of Voltage-gated inwardly rectifying potassium channel KCNH2 (Q12809 whole entry): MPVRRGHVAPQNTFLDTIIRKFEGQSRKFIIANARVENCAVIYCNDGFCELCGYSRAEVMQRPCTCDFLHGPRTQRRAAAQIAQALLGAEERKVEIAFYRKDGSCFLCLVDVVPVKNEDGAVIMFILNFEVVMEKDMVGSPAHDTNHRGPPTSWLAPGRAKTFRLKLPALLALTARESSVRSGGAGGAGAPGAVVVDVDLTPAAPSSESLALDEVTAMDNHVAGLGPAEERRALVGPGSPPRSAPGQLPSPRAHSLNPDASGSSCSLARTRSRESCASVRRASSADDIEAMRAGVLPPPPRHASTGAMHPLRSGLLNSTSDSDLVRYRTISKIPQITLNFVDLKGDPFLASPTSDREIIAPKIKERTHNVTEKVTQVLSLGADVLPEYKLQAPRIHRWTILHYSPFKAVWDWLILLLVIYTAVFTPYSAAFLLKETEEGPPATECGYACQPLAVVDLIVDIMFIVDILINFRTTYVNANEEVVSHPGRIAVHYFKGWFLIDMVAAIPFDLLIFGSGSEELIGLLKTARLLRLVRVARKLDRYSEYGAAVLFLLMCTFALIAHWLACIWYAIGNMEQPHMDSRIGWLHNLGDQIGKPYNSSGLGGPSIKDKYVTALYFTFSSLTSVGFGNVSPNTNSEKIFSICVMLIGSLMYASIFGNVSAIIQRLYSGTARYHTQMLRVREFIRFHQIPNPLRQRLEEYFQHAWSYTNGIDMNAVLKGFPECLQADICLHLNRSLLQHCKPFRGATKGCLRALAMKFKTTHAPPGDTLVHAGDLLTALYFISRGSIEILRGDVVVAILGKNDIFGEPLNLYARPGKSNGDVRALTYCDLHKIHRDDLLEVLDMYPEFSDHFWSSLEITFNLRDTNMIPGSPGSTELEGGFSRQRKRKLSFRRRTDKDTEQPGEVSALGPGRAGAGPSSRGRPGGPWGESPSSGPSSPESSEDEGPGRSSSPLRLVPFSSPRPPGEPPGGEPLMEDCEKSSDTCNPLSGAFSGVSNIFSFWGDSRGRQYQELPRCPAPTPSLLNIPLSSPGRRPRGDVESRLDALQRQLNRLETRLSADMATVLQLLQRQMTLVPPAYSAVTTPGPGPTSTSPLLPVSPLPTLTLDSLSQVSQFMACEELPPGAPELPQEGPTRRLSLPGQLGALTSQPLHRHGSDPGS
Chain of D(3) dopamine receptor (P35462 whole entry): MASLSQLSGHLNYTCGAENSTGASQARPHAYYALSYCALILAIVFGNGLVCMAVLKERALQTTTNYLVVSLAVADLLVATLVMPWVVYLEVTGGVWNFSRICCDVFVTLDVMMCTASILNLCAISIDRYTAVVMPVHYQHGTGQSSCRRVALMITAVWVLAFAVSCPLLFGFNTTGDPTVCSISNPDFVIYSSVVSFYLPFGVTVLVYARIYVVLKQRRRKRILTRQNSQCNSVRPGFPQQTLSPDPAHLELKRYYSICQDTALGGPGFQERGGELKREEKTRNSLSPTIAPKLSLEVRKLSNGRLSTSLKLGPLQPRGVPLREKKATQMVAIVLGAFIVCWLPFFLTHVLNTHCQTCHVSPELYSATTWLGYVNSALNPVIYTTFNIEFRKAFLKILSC
Chain of 5-hydroxytryptamine receptor 2A (P14842 whole entry): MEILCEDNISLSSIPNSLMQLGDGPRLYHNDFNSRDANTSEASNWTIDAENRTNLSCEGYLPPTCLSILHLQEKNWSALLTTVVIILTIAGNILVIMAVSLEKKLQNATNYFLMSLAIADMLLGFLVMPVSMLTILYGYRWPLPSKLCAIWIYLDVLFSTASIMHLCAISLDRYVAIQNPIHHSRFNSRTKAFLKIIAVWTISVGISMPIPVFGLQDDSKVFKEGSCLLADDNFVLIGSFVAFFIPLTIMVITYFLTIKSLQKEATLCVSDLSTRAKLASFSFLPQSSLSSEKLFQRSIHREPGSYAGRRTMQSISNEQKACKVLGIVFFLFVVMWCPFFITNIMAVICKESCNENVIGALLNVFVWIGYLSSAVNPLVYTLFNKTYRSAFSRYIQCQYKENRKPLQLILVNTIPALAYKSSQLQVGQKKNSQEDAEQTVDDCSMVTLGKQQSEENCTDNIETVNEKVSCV

## Cc1cccc(N2CCN(CCCCNC(=O)c3cc4ccccc4o3)CC2)c1
[1]
  Ki: 3290 nM
[2]
  Activity: Active
[3]
  Ki: 11.9 nM
[4]
  Ki: 15 nM
[5]
  Activity: Active
[6]
  Ki: 138 nM
[7]
  IC50: 143 nM
[8]
  Activity: Dose-dependent effect
[9]
  Activity: Active
[10]
  ED50: > 30 mg/kg
[11]
  ED50: 2.1 mg/kg
[12]
  Activity: inactive
[13]
  Ki: 930 nM
[14]
  Ki: 43 nM
[15]
  ED50: 2.6 mg/kg
[16]
  Activity: Active
[17]
  IC50: 230 nM
[18]
  Activity: Active
[19]
  Activity: Active
